Patent publication US12077503B2, “Substituted cyclic amides and their use as herbicides” (FMC CORPORATION, priority 2015, dated 2024)

What was measured:
Format in all cases: in vivo
Kochia (Kochia scoparia) [1] = test: Test A preemergence; conditions: Bassia scoparia, pre-emergence, 240 h, preemergence, 0 to 100 scale where 0 is no effect and 100 is complete control, read-out: Kochia plant response rating; for pest or weed control at 125 g/ha: 125 g ai/ha, approx. 10 d; for pest or weed control at 500 g/ha: 500 g ai/ha
Outline: (§1)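 Preemergence soil spray on seeded pots or post-emergence spray on 1–2 leaf plants, in loam–sand blend. Greenhouse ~10 d. Visual rating 0–100 against untreated plants.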

[2] = tested on: barnyardgrass (Echinochloa crus-galli); test: Test A preemergence; conditions: Echinochloa crus-galli, pre-emergence, 240 h, preemergence, read-out: Barnyardgrass plant response rating; for pest or weed control at 125 g/ha: 125 g ai/ha, approx. 10 d; for pest or weed control at 500 g/ha: 500 g ai/ha
Outline: as §1

[3] = tested on: giant foxtail (Setaria faberii); test: Test A preemergence; conditions: Setaria faberi, pre-emergence, 240 h, preemergence, 0 to 100 scale where 0 is no effect and 100 is complete control, read-out: Foxtail, Giant plant response rating; for pest or weed control at 125 g/ha: 125 g ai/ha, approx. 10 d; for pest or weed control at 500 g/ha: 500 g ai/ha
Outline: as §1

[4] = tested on: pigweed (Amaranthus retroflexus); test: Test A preemergence; conditions: Amaranthus retroflexus, pre-emergence, 240 h, preemergence, 0 to 100 scale where 0 is no effect and 100 is complete control, read-out: Pigweed plant response rating; for pest or weed control at 125 g/ha: 125 g ai/ha, approx. 10 d; for pest or weed control at 500 g/ha: 500 g ai/ha
[5] = tested on: ragweed (common ragweed, Ambrosia elatior); test: Test A preemergence; conditions: Ambrosia artemisiifolia, pre-emergence, 240 h, preemergence, 0 to 100 scale where 0 is no effect and 100 is complete control, read-out: Ragweed plant response rating; for pest or weed control at 125 g/ha: 125 g ai/ha, approx. 10 d; for pest or weed control at 500 g/ha: 500 g ai/ha
Outline: as §1

[6] = tested on: ryegrass, Italian (Italian ryegrass, Lolium multiflorum); test: Test A preemergence; conditions: Lolium multiflorum, pre-emergence, 240 h, preemergence, 0 to 100 scale where 0 is no effect and 100 is complete control, read-out: Ryegrass, Italian plant response rating; for pest or weed control at 125 g/ha: 125 g ai/ha, approx. 10 d; for pest or weed control at 500 g/ha: 500 g ai/ha
Outline: as §1

[7] = tested on: Galium (catchweed bedstraw, Galium aparine); test: Test A postemergence; conditions: Galium, post-emergence, 240 h, postemergence, read-out: Galium plant response rating; for pest or weed control at 125 g/ha: 125 g ai/ha, visual injury on 0 to 100 scale (0 no effect, 100 complete control), approx. 10 d; for pest or weed control at 500 g/ha: 500 g ai/ha, 0 to 100 scale, 0 is no effect, 100 is complete control
Outline: as §1

Kochia (Kochia scoparia) [8] = test: Test A postemergence; conditions: Bassia scoparia, post-emergence, 240 h, postemergence, read-out: Kochia plant response rating; for pest or weed control at 125 g/ha: 125 g ai/ha, visual injury on 0 to 100 scale (0 no effect, 100 complete control), approx. 10 d; for pest or weed control at 500 g/ha: 500 g ai/ha, 0 to 100 scale, 0 is no effect, 100 is complete control
Outline: as §1

[9] = tested on: barnyardgrass (Echinochloa crus-galli); test: Test A postemergence; conditions: Echinochloa crus-galli, post-emergence, 240 h, postemergence, read-out: Barnyardgrass plant response rating; for pest or weed control at 125 g/ha: 125 g ai/ha, visual injury on 0 to 100 scale (0 no effect, 100 complete control), approx. 10 d; for pest or weed control at 500 g/ha: 500 g ai/ha, 0 to 100 scale, 0 is no effect, 100 is complete control
Outline: as §1

[10] = tested on: blackgrass (Alopecurus myosuroides); test: Test A postemergence; conditions: Alopecurus myosuroides, post-emergence, 240 h, postemergence, read-out: Blackgrass plant response rating; for pest or weed control at 125 g/ha: 125 g ai/ha, visual injury on 0 to 100 scale (0 no effect, 100 complete control), approx. 10 d; for pest or weed control at 500 g/ha: 500 g ai/ha, 0 to 100 scale, 0 is no effect, 100 is complete control
Outline: as §1

corn (Zea mays) = test: Test A postemergence; conditions: Zea mays, post-emergence, 240 h, postemergence, read-out: Corn plant response rating; for plant injury at 125 g/ha: 125 g ai/ha, visual injury on 0 to 100 scale (0 no effect, 100 complete control), approx. 10 d; for plant injury at 500 g/ha: 500 g ai/ha, 0 to 100 scale, 0 is no effect, 100 is complete control
Outline: as §1

[11] = tested on: giant foxtail (Setaria faberii); test: Test A postemergence; conditions: Setaria faberi, post-emergence, 240 h, postemergence, read-out: Foxtail, Giant plant response rating; for pest or weed control at 125 g/ha: 125 g ai/ha, visual injury on 0 to 100 scale (0 no effect, 100 complete control), approx. 10 d; for pest or weed control at 500 g/ha: 500 g ai/ha, 0 to 100 scale, 0 is no effect, 100 is complete control
Outline: as §1

[12] = tested on: pigweed (Amaranthus retroflexus); test: Test A postemergence; conditions: Amaranthus retroflexus, post-emergence, 240 h, postemergence, read-out: Pigweed plant response rating; for pest or weed control at 125 g/ha: 125 g ai/ha, visual injury on 0 to 100 scale (0 no effect, 100 complete control), approx. 10 d; for pest or weed control at 500 g/ha: 500 g ai/ha, 0 to 100 scale, 0 is no effect, 100 is complete control
Outline: as §1

[13] = tested on: ryegrass, Italian (Italian ryegrass, Lolium multiflorum); test: Test A postemergence; conditions: Lolium multiflorum, post-emergence, 240 h, postemergence, read-out: Ryegrass, Italian plant response rating; for pest or weed control at 125 g/ha: 125 g ai/ha, visual injury on 0 to 100 scale (0 no effect, 100 complete control), approx. 10 d; for pest or weed control at 500 g/ha: 500 g ai/ha, 0 to 100 scale, 0 is no effect, 100 is complete control
Outline: as §1

[14] = tested on: wheat (Triticum aestivum); test: Test A postemergence; conditions: Triticum aestivum, post-emergence, 240 h, postemergence, read-out: Wheat plant response rating; for plant injury at 125 g/ha: 125 g ai/ha, visual injury on 0 to 100 scale (0 no effect, 100 complete control), approx. 10 d; for plant injury at 500 g/ha: 500 g ai/ha, 0 to 100 scale, 0 is no effect, 100 is complete control
Outline: as §1

[15] = 0 to 100 scale where 0 is no effect and 100 is complete control

SMILES | pest or weed control at 125 g/ha (Kochia (Kochia scoparia) [1]) [%] | pest or weed control at 500 g/ha (Kochia (Kochia scoparia) [1]) [%] | pest or weed control at 125 g/ha [2, 15] [%] | pest or weed control at 125 g/ha [3] [%] | pest or weed control at 500 g/ha [3] [%] | pest or weed control at 125 g/ha [4] [%] | pest or weed control at 500 g/ha [4] [%] | pest or weed control at 125 g/ha [5] [%] | pest or weed control at 500 g/ha [5] [%] | pest or weed control at 125 g/ha [6] [%] | pest or weed control at 500 g/ha [6] [%] | pest or weed control at 125 g/ha [7] [%] | pest or weed control at 500 g/ha [7] [%] | pest or weed control at 125 g/ha (Kochia (Kochia scoparia) [8]) [%] | pest or weed control at 500 g/ha (Kochia (Kochia scoparia) [8]) [%] | pest or weed control at 125 g/ha [9] [%] | pest or weed control at 500 g/ha [9] [%] | pest or weed control at 125 g/ha [10] [%] | pest or weed control at 500 g/ha [10] [%] | plant injury at 125 g/ha (corn (Zea mays)) [%] | other results
CN1C[C@H](c2csc(C(F)F)c2)[C@@H](C(=O)Nc2ccccc2F)C1=O [Compound 1123] | 60 | 80 | 90 | 90 | 90 | 0 | 50 | 20 | 60 | 40 | 60 | 40 | 50 | 60 | 70 | 90 | 90 | 30 | 80 | 20 | pest or weed control at 500 g/ha ([2]; visual injury rating about 10 d after treatment, 0 to 100 scale (0 no effect, 100 complete control)): 90%; plant injury at 500 g/ha (corn (Zea mays)): 80%; pest or weed control at 125 g/ha [11]: 90%; pest or weed control at 500 g/ha [11]: 90%; pest or weed control at 125 g/ha [12]: 0%; pest or weed control at 500 g/ha [12]: 20%; pest or weed control at 125 g/ha [13]: 30%; pest or weed control at 500 g/ha [13]: 50%; plant injury at 125 g/ha [14]: 0%; plant injury at 500 g/ha [14]: 60%
CN1CC(c2cccc(/C=C/Cl)c2)C(C(=O)Nc2ccccc2F)C1=O (stereo not drawn) [Compound 1129] | 0 | 50 | 80 | 90 | 90 | 0 | 0 | 0 | 0 | 20 | 50 | 0 | 0 | 0 | 0 | 40 | 90 | 0 | 0 | 0 | pest or weed control at 500 g/ha [2, 15]: 90%; plant injury at 500 g/ha (corn (Zea mays)): 0%; pest or weed control at 125 g/ha [11]: 70%; pest or weed control at 500 g/ha [11]: 90%; pest or weed control at 125 g/ha [12]: 0%; pest or weed control at 500 g/ha [12]: 0%; pest or weed control at 125 g/ha [13]: 0%; pest or weed control at 500 g/ha [13]: 0%; plant injury at 125 g/ha [14]: 0%; plant injury at 500 g/ha [14]: 0%
CN1CC(c2cccc(O)c2)C(C(=O)Nc2cccc(F)c2F)C1=O (stereo not drawn) [Compound 1130] | 0 | 0 | 0 | 0 | 30 | 0 | 0 | 0 | 0 | 0 | 0 | 0 | 0 | 0 | 0 | 0 | 20 | 0 | 0 | 0 | pest or weed control at 500 g/ha [2, 15]: 0%; plant injury at 500 g/ha (corn (Zea mays)): 0%; pest or weed control at 125 g/ha [11]: 0%; pest or weed control at 500 g/ha [11]: 30%; pest or weed control at 125 g/ha [12]: 0%; pest or weed control at 500 g/ha [12]: 0%; pest or weed control at 125 g/ha [13]: 0%; pest or weed control at 500 g/ha [13]: 0%; plant injury at 125 g/ha [14]: 0%; plant injury at 500 g/ha [14]: 0%
